Measurements: ChEMBL document CHEMBL4828776, “Acremopeptaibols A-F, 16-Residue Peptaibols from the Sponge-Derived Acremonium sp. IMB18-086 Cultivated with Heat-Killed Pseudomonas aeruginosa” (J Nat Prod, 2021)
Converted amounts (≈) assume the structure as drawn. Non-standard residues stand in square brackets, D forms with d. Residues, ends and D or L forms follow the SMILES beside them. Hyp = O=C(O)[C@@H]1C[C@@H](O)CN1; Phe(ol) = N[C@H](CO)Cc1ccccc1; Aib = CC(C)(N)C(=O)O

Experiments:
Pseudomonas aeruginosa = experiment: Antibacterial activity against Pseudomonas aeruginosa ATCC 27853 assessed as inhibition of bacterial growth incubated for 16 hrs by microdilution method; format: functional
Candida albicans = experiment: Antifungal activity against Candida albicans ATCC 10231 assessed as inhibition of fungal growth incubated for 16 hrs by microdilution method; format: functional
HepG2 = experiment: Cytotoxicity against human HepG2 cells assessed as reduction in cell viability incubated for 48 hrs by CCK8 assay; format: functional, cell-based; conditions: HepG2, 48 h
Staphylococcus aureus [1] = experiment: Antibacterial activity against Staphylococcus aureus ATCC 29213 assessed as inhibition of bacterial growth incubated for 16 hrs by microdilution method; format: functional
Staphylococcus aureus [2] = experiment: Antibacterial activity against methicillin-resistant Staphylococcus aureus ATCC 33591 assessed as inhibition of bacterial growth incubated for 16 hrs by microdilution method; format: functional
Bacillus subtilis = experiment: Antibacterial activity against Bacillus subtilis ATCC 6633 assessed as inhibition of bacterial growth incubated for 16 hrs by microdilution method; format: functional
Enterococcus faecalis = experiment: Antibacterial activity against vancomycin-resistant Enterococcus faecalis 21-07 assessed as inhibition of bacterial growth incubated for 16 hrs by microdilution method; format: functional
[3] = tested on: Staphylococcus epidermidis; experiment: Antibacterial activity against Staphylococcus epidermidis ATCC 12228 assessed as inhibition of bacterial growth incubated for 16 hrs by microdilution method; format: functional
A549 = experiment: Cytotoxicity against human A549 cells assessed as reduction in cell viability incubated for 48 hrs by CCK8 assay; format: functional, cell-based; conditions: A549, 48 h
Escherichia coli = experiment: Antibacterial activity against Escherichia coli ATCC 25922 assessed as inhibition of bacterial growth incubated for 16 hrs by microdilution method; format: functional
Staphylococcus aureus [4] = experiment: Antibacterial activity against Staphylococcus aureus ATCC 25923 assessed as inhibition of bacterial growth incubated for 16 hrs by microdilution method; format: functional

Compound | MIC (Pseudomonas aeruginosa) [µg/mL] | MIC (Candida albicans) [µg/mL] | IC50 (HepG2) [nM] | MIC (Staphylococcus aureus [1]) [µg/mL] | MIC (Staphylococcus aureus [2]) [µg/mL] | MIC (Bacillus subtilis) [µg/mL] | MIC (Enterococcus faecalis) [µg/mL] | MIC [3] [µg/mL] | IC50 (A549) [nM] | MIC (Escherichia coli) [µg/mL] | MIC (Staphylococcus aureus [4]) [µg/mL]
CC[C@@](C)(NC(=O)[C@H](CCC(N)=O)NC(=O)C(C)(C)NC(=O)[C@H](Cc1c[nH]c2ccccc12)NC(C)=O)C(=O)NCC(=O)NC(C)(C)C(=O)N[C@@H](C)C(=O)NC(C)(C)C(=O)NC(C)(C)C(=O)NCC(=O)N[C@@H](CCC(N)=O)C(=O)NC(C)(C)C(=O)N1C[C@H](O)C[C@H]1C(=O)NC(C)(C)C(=O)N1CCC[C@H]1C(=O)N[C@H](CO)Cc1ccccc1 | > 128 | 64 (≈ 39 µM) | ≥ 50000 | > 128 | > 128 | 64 (≈ 39 µM) | > 128 | > 128 | ≥ 50000 | > 128 | > 128
C/C(=C\Cc1c(O)c(Cl)c(C)c(C=O)c1O)[C@H](O)C[C@@]1(C)[C@H](C)CCC(=O)[C@@H]1C | > 128 | > 128 | 900 | > 128 | > 128 | > 128 | > 128 | > 128 | 900 | > 128 | 128 (≈ 303 µM)
CC[C@@](C)(NC(=O)[C@H](CCC(N)=O)NC(=O)C(C)(C)NC(=O)[C@H](Cc1c[nH]c2ccccc12)NC(C)=O)C(=O)NCC(=O)NC(C)(C)C(=O)N[C@@H](C)C(=O)NC(C)(C)C(=O)NC(C)(C)C(=O)NCC(=O)N[C@@H](CCC(N)=O)C(=O)N[C@](C)(CC)C(=O)N1C[C@H](O)C[C@H]1C(=O)NC(C)(C)C(=O)N1CCC[C@H]1C(=O)N[C@H](CO)Cc1ccccc1 | > 128 | 32 (≈ 19.3 µM) | ≥ 50000 | 64 (≈ 38.7 µM) | 64 (≈ 38.7 µM) | 16 (≈ 9.67 µM) | > 128 | > 128 | ≥ 50000 | > 128 | 64 (≈ 38.7 µM)
CC[C@@](C)(NC(=O)[C@H](CCC(N)=O)NC(=O)CNC(=O)C(C)(C)NC(=O)C(C)(C)NC(=O)[C@H](C)NC(=O)C(C)(C)NC(=O)CNC(=O)C(C)(C)NC(=O)[C@H](CCC(N)=O)NC(=O)C(C)(C)NC(=O)[C@H](Cc1c[nH]c2ccccc12)NC(C)=O)C(=O)N1C[C@H](O)C[C@H]1C(=O)NC(C)(C)C(=O)N1CCC[C@H]1C(=O)N[C@H](CO)Cc1ccccc1 | > 128 | 64 (≈ 39 µM) | ≥ 50000 | 128 (≈ 78 µM) | 128 (≈ 78 µM) | 32 (≈ 19.5 µM) | > 128 | > 128 | ≥ 50000 | > 128 | 128 (≈ 78 µM)
CC[C@@](C)(NC(=O)CNC(=O)[C@@](C)(CC)NC(=O)[C@H](CCC(N)=O)NC(=O)C(C)(C)NC(=O)[C@H](Cc1c[nH]c2ccccc12)NC(C)=O)C(=O)N[C@@H](C)C(=O)NC(C)(C)C(=O)NC(C)(C)C(=O)NCC(=O)N[C@@H](CCC(N)=O)C(=O)NC(C)(C)C(=O)N1C[C@H](O)C[C@@H]1C(=O)NC(C)(C)C(=O)N1CCC[C@H]1C(=O)N[C@H](CO)Cc1ccccc1 | > 128 | 64 (≈ 38.7 µM) | ≥ 50000 | > 128 | > 128 | > 128 | > 128 | > 128 | ≥ 50000 | > 128 | > 128
CC(/C=C/[C@@]1(C)[C@H](C)CCC(=O)[C@@H]1C)=C\Cc1c(O)c(Cl)c(C)c(C=O)c1O [ASCOCHLORIN] | > 128 | 4 (≈ 9.88 µM) | 900 | 16 (≈ 39.5 µM) | > 128 | 2 (≈ 4.94 µM) | > 128 | 0.25 (≈ 0.617 µM) | 900 | > 128 | 1 (≈ 2.47 µM)
COLISTIN | 1 | – | – | 128 | 128 | 16 | > 128 | 16 | – | 1 | 64
C/C(=C\Cc1c(O)c(Cl)c(C)c(C=O)c1O)CC/C=C(\C)[C@@H]1CC(=O)C(C)(C)O1 [ASCOFURANONE] | > 128 | 32 (≈ 76 µM) | 900 | 16 (≈ 38 µM) | 32 (≈ 76 µM) | 16 (≈ 38 µM) | > 128 | 4 (≈ 9.5 µM) | 900 | > 128 | 4 (≈ 9.5 µM)
CN[C@H](CC(C)C)C(=O)N[C@H]1C(=O)N[C@@H](CC(N)=O)C(=O)N[C@H]2C(=O)N[C@H]3C(=O)N[C@H](C(=O)N[C@H](C(=O)O)c4cc(O)cc(O)c4-c4cc3ccc4O)[C@H](O)c3ccc(c(Cl)c3)Oc3cc2cc(c3O[C@@H]2O[C@H](CO)[C@@H](O)[C@H](O)[C@H]2O[C@H]2C[C@](C)(N)[C@H](O)[C@H](C)O2)Oc2ccc(cc2Cl)[C@H]1O [VANCOMYCIN] | > 128 | – | – | – | – | 0.125 (≈ 0.0863 µM) | 16 (≈ 11 µM) | – | – | > 128 | –
CC(/C=C/[C@@]1(C)[C@H](C)CC[C@@H](O)[C@@H]1C)=C\Cc1c(O)c(Cl)c(C)c(C=O)c1O | > 128 | > 128 | 900 | > 128 | > 128 | 32 (≈ 78.6 µM) | > 128 | 16 (≈ 39.3 µM) | 900 | > 128 | 16 (≈ 39.3 µM)
CC(=O)N[C@@H](Cc1c[nH]c2ccccc12)C(=O)NC(C)(C)C(=O)N[C@@H](CCC(N)=O)C(=O)NC(C)(C)C(=O)NCC(=O)NC(C)(C)C(=O)N[C@@H](C)C(=O)NC(C)(C)C(=O)NC(C)(C)C(=O)NCC(=O)N[C@@H](CCC(N)=O)C(=O)NC(C)(C)C(=O)N1C[C@H](O)C[C@H]1C(=O)NC(C)(C)C(=O)N1CCC[C@H]1C(=O)N[C@H](CO)Cc1ccccc1 (Ac-W[Aib]Q[Aib]G[Aib]A[Aib][Aib]GQ[Aib][Hyp][Aib]P[Phe(ol)]) | > 128 | > 128 | ≥ 50000 | > 128 | > 128 | > 128 | > 128 | > 128 | ≥ 50000 | > 128 | > 128
NYSTATIN | – | > 128 | – | – | – | – | – | – | – | – | –
CC[C@@](C)(NC(=O)CNC(=O)[C@@](C)(CC)NC(=O)[C@H](CCC(N)=O)NC(=O)C(C)(C)NC(=O)[C@H](Cc1c[nH]c2ccccc12)NC(C)=O)C(=O)N[C@@H](C)C(=O)NC(C)(C)C(=O)NC(C)(C)C(=O)NCC(=O)N[C@@H](CCC(N)=O)C(=O)N[C@](C)(CC)C(=O)N1C[C@H](O)C[C@H]1C(=O)NC(C)(C)C(=O)N1CCC[C@H]1C(=O)N[C@H](CO)Cc1ccccc1 | > 128 | 16 (≈ 9.59 µM) | ≥ 50000 | 32 (≈ 19.2 µM) | 64 (≈ 38.3 µM) | 16 (≈ 9.59 µM) | > 128 | > 128 | ≥ 50000 | > 128 | 64 (≈ 38.3 µM)
